Experimental data published in ChEMBL document CHEMBL5325427.
Converted amounts (≈) assume the structure as drawn.

Test system: SARS-CoV-2
Experiment: Antiviral activity against SARS CoV-2 DG614G infected human Vero cells overexpressing ACE2 compound preincubated with cells for 1 hr followed by viral infection and measured after 24 hrs by flow cytometry analysis
Format: functional, organism-based
Conditions: Severe acute respiratory syndrome coronavirus 2, DG614G

COc1ccc2[nH]c3c(c2c1)C[C@]1(OC)CC[C@H]2c4[nH]c5ccccc5c4CCN2[C@@H]1C3
IC50: 0.06 µg/mL (≈ 0.14 µM)
